One series has as its system Mtb H37Rv. The experiment in a line: microbe, parasite or virus in culture. In kind it is cell-based, Mycobacterium tuberculosis.
For series [1], the system named is Human non-tumorigenic lung epithelial cells (BEAS-2B). In kind it is cell-based. To be noted: read-out: Toxicity IC50 BEAS-2B.
Series [2] concerns Normal Lung Fibroblasts (IMR-90). Type of series: cell-based, human. To be noted: read-out: Toxicity IC50 IMR-90.
Series [3] relates to Human Embryonic Kidney cells (HEK 293). As to conditions: for IC50: read-out: Toxicity IC50 HEK293.
For series [4] the following is noted: 6.0 × 10^–5 M in DMSO and 28% ethanol-water, 24 h, 25 °C.
Where [5] appears, read: MABA, Mtb H37Rv, one week at 37 °C.

In brackets after ≈: the same amount, converted by molar mass. Where two headings read alike, the source gives them in different places. Some results are limits rather than exact numbers.

Regarding “3-((2-Isonicotinoylhydrazono)methyl)phenyl 2,4,6-trimethylbenzenesulfonate [SIH3]”, in the series on Mtb H37Rv (setting [5]), the MIC was 0.62 µM. Besides, the IC50 was over 100 µM in series [1] (MTT, 48 h, triplicate); over 100 µM in series [2] (MTT, 48 h, triplicate); 100 µM in series [3] (MTT, 48 h, triplicate).

In turn, “3-((2-Isonicotinoylhydrazono)methyl)phenyl 2,5-dichlorobenzenesulfonate [SIH8]” registered an MIC against Mtb H37Rv (setting [5]) of 0.62 µM. Also, the IC50 in series [1] (MTT, 48 h, triplicate) was over 100 µM; in series [2] (MTT, 48 h, triplicate) it was 100 µM; in series [3] (MTT, 48 h, triplicate) it was over 100 µM.

For the compound “3-((2-Isonicotinoylhydrazono)methyl)phenyl 3-nitrobenzenesulfonate [SIH10]”, the MIC against Mtb H37Rv (setting [5]) came to 0.62 µM. For the same compound, the IC50 in series [1] (MTT, 48 h, triplicate) was over 100 µM; in series [2] (MTT, 48 h, triplicate) it was over 100 µM; in series [3] (MTT, 48 h, triplicate), over 100 µM.

“3-((2-Isonicotinoylhydrazono)methyl)phenyl 4-(tert-butyl)benzenesulfonate [SIH2]”: the MIC against Mtb H37Rv (setting [5]) was determined as 0.62 µM. Moreover, the IC50 is over 100 µM in series [1] (MTT, 48 h, triplicate); 89.5 µM in series [2] (MTT, 48 h, triplicate); over 100 µM in series [3] (MTT, 48 h, triplicate).

The compound “3-((2-Isonicotinoylhydrazono)methyl)phenyl 4-acetamidobenzenesulfonate [SIH11]” showed an MIC against Mtb H37Rv (setting [5]) of 0.62 µM. Also, the IC50 in series [1] (MTT, 48 h, triplicate) was over 100 µM; in series [2] (MTT, 48 h, triplicate), over 100 µM; in series [3] (MTT, 48 h, triplicate) it was over 100 µM.

Take “3-((2-Isonicotinoylhydrazono)methyl)phenyl 4-bromobenzenesulfonate [SIH5]”: the MIC against Mtb H37Rv (setting [5]) is given as 0.62 µM. Further, the IC50 in series [1] (MTT, 48 h, triplicate) was over 100 µM; in series [2] (MTT, 48 h, triplicate) it was 90.3 µM; in series [3] (MTT, 48 h, triplicate), 100 µM.

For “3-((2-Isonicotinoylhydrazono)methyl)phenyl 4-chlorobenzenesulfonate [SIH6]”, the MIC in the series on Mtb H37Rv (setting [5]) was 0.62 µM. Besides, the IC50 in series [1] (MTT, 48 h, triplicate) is over 100 µM; in series [2] (MTT, 48 h, triplicate) it was over 100 µM; in series [3] (MTT, 48 h, triplicate), over 100 µM.

Turning to “3-((2-Isonicotinoylhydrazono)methyl)phenyl 4-iodobenzenesulfonate [SIH7]”, in the series with Mtb H37Rv (setting [5]), the MIC stood at 0.62 µM. In addition, the IC50 in series [1] (MTT, 48 h, triplicate) is over 100 µM; in series [2] (MTT, 48 h, triplicate), 100 µM; in series [3] (MTT, 48 h, triplicate), over 100 µM.

Compound “3-((2-Isonicotinoylhydrazono)methyl)phenyl 4-methoxybenzenesulfonate [SIH4]” displayed an MIC in the series with Mtb H37Rv (setting [5]) of 0.31 µM. Moreover, the “Change in λmax values (stability of hydrazone)” value (“Change in λmax values” for short) in series [4] is recorded as “no significant change in λmax values”. The IC50 is over 100 µM in series [1] (MTT, 48 h, triplicate); over 100 µM in series [2] (MTT, 48 h, triplicate); 40.8 µM in series [3] (MTT, 48 h, triplicate). For the same compound, in series [3] (MTT), the “Cytotoxicity against HEK293 (in words)” value is recorded as “moderately toxic”.

Compound “3-((2-Isonicotinoylhydrazono)methyl)phenyl 4-methylbenzenesulfonate [SIH1]” registered an MIC against Mtb H37Rv (setting [5]) of 0.31 µM. Besides, the “Change in λmax values” value in series [4] is “no significant change in λmax values”. The half-maximal inhibitory concentration (IC50) in series [1] (MTT, 48 h, triplicate) is over 100 µM; in series [2] (MTT, 48 h, triplicate), over 100 µM; in series [3] (MTT, 48 h, triplicate), 57.2 µM. Also, the “Cytotoxicity against HEK293 (in words)” value in series [3] (MTT) is listed as “moderately toxic”.

Compound “3-((2-Isonicotinoylhydrazono)methyl)phenyl 4-nitrobenzenesulfonate [SIH9]” gave an MIC in the series with Mtb H37Rv (setting [5]) of 0.62 µM. Further, the IC50 in series [1] (MTT, 48 h, triplicate) was over 100 µM; in series [2] (MTT, 48 h, triplicate) it was over 100 µM; in series [3] (MTT, 48 h, triplicate), 100 µM.

In the series with Mtb H37Rv (setting [5]), “3-((2-Isonicotinoylhydrazono)methyl)phenyl [1,1′-biphenyl]-4-sulfonate [SIH12]” gave an MIC of 0.31 µM. In addition, in series [4], the “Change in λmax values” value was “no significant change in λmax values”. Besides, the IC50 was over 100 µM in series [1] (MTT, 48 h, triplicate); 57.7 µM in series [2] (MTT, 48 h, triplicate); 52.4 µM in series [3] (MTT, 48 h, triplicate). Also, the “Cytotoxicity against HEK293 (in words)” value in series [3] (MTT) is on record as “moderately toxic”.

In turn, “3-((2-Isonicotinoylhydrazono)methyl)phenyl quinoline-8-sulfonate [SIH13]” gave an MIC in the series on Mtb H37Rv of 0.31 µM. For the same compound, the results for the IC50 in series [1], in series [2] and in series [3] were over 100 µM, 100 µM and 58.3 µM, respectively.

Compound `NNC(=O)c1ccncc1` [Isoniazid, isonicotinic acid hydrazide, reference compound] registered an MIC against Mtb H37Rv (Mycobacterium tuberculosis, 168 h, MABA, Mtb H37Rv, one week at 37 °C) of 0.31 µM (≈ 0.0425 µg/mL).

The values are drawn from article PMC9609273 (Pharmaceuticals, 2022).
